The text below walks through data of ChEMBL document CHEMBL1146811, “Specific inhibition effects of N-pentafluorobenzyl-1-deoxynojirimycin on human CD4+ T cells” (Bioorg Med Chem Lett, 2004).

Molecules are shown by their SMILES.

This assay can be described thus: Effect on proliferation of human peripheral blood mononuclear cells (PMBC) at 72 hr using MTT assay. In kind it is functional. (In general: Formazan colour is commonly taken as a measure of viable cells.)

In the case of `OC[C@H]1NC[C@H](O)[C@@H](O)[C@@H]1O` [DUVOGLUSTAT], it took 25.6 µM to reach half-maximal inhibition (IC50). The compound `OCC1C(O)C(O)C(O)CN1Cc1c(F)c(F)c(F)c(F)c1F` (configuration not stated) yielded an IC50 of 20.2 µM.

The term IC50 denotes the concentration that inhibits the measured activity by half. Read a high IC50 as weaker potency in that assay.
